Data from patent EP1072948B1, “Thermally processed image recording material” (FUJIFILM Corporation, priority 1999, dated 2001).

Experiments:
[1] = Example 1: image storage stability 1 (developed material stored in the dark); conditions: 24 hours, relative humidity 50%
Protocol: (§1) After each thermally processed image recording material was light-exposed by a laser sensitometer (details are given below), the thermally processed image recording material was treated at 118°C for 5 seconds and then treated at 122°C for 16 seconds (heat development).
(§2) The evaluation of the image obtained was performed by using a Macbeth TD904 densitometer (visible density). The measurement results were evaluated as Dmin, sensitivity (evaluated by a relative value of a reciprocal of a ratio of exposure amounts giving a density higher than Dmin by 1.0, and the sensitivity of the thermally processed image recording material of Experiment No. 1 shown in Table 1 below was defined as 100), Dmax, and gradation (contrast) (fresh photographic properties). The contrast was expressed by a gradient of a straight line connecting the points at the densities from which the value for Dmin was subtracted, 0.5 and 1.5, with the abscissa being a logarithm of the exposure amount.

[2] = Example 1: image storage stability 2 (developed material stored under light irradiation); conditions: 24 hours, 10,000 luces, relative humidity 50%
Protocol: as §1, §2

[3] = Example 2: image storage stability 1 (developed material stored in the dark); conditions: 24 hours, relative humidity 50%
Protocol: (§3) Each light-exposed thermally processed image recording material was heat-developed by using a heat-developing apparatus as shown in Fig.1. The roller surface material of the heat development section was composed of silicone rubber, and the flat surface consisted of Teflon non-woven fabric. The heat development was performed at a transportation linear speed of 20 mm/second and a temperature of 90-110°C in the preheating section for 15 seconds (driving units of the preheating section and the heat development section were independent from each other, and speed difference as to the heat development section was adjusted to -0.5% to -1%), and 120°C for 20 seconds in the heat development section, and for 15 seconds in the gradual cooling section. The temperature precision as for the transverse direction was ±1°C.
as §2, with “0.3” for “0.5”

[4] = Example 2: image storage stability 2 (developed material stored under light irradiation); conditions: 24 hours, 10,000 luces, relative humidity 50%
Protocol: as §3
as §2, with “0.3” for “0.5”

Image storage stability-1 (stored in dark, 60°C, 50%) Dmax ([1]; Table 1, 1.6×10^-1 mol/mol-Ag)	Image storage stability-1 (stored in dark, 60°C, 50%) Dmin ([1]; Table 1, 1.6×10^-1 mol/mol-Ag)	Image storage stability-2 (stored in light, 40°C, 50%) Dmax ([2]; Table 1, 1.6×10^-1 mol/mol-Ag)	Image storage stability-2 (stored in light, 40°C, 50%) Dmin ([2]; Table 1, 1.6×10^-1 mol/mol-Ag)	Image storage stability-1 (stored in dark, 60°C, 50%) Dmax ([3]; Table 3, 8×10^-2 mol/mol-Ag)	Image storage stability-1 (stored in dark, 60°C, 50%) Dmin ([3]; Table 3, 8×10^-2 mol/mol-Ag)	Image storage stability-2 (stored in light, 40°C, 50%) Dmax ([4]; Table 3, 8×10^-2 mol/mol-Ag)	Image storage stability-2 (stored in light, 40°C, 50%) Dmin ([4]; Table 3, 8×10^-2 mol/mol-Ag)	Image storage stability-1 (stored in dark, 60°C, 50%) Dmax ([1]; Table 2, 1.6×10^-1 mol/mol-Ag)	Image storage stability-1 (stored in dark, 60°C, 50%) Dmin ([1]; Table 2, 1.6×10^-1 mol/mol-Ag)	Image storage stability-2 (stored in light, 40°C, 50%) Dmax ([2]; Table 2, 1.6×10^-1 mol/mol-Ag)	Image storage stability-2 (stored in light, 40°C, 50%) Dmin ([2]; Table 2, 1.6×10^-1 mol/mol-Ag)	Image storage stability-1 (stored in dark, 60°C, 50%) Dmax ([3]; Table 4, 8×10^-2 mol/mol-Ag)	Image storage stability-1 (stored in dark, 60°C, 50%) Dmin ([3]; Table 4, 8×10^-2 mol/mol-Ag)	Image storage stability-2 (stored in light, 40°C, 50%) Dmax ([4]; Table 4, 8×10^-2 mol/mol-Ag)	Image storage stability-2 (stored in light, 40°C, 50%) Dmin ([4]; Table 4, 8×10^-2 mol/mol-Ag)	Structure (SMILES)
								2.8	0.60	2.9	0.50	3.7	0.43	3.7	0.29	CCCCCCCCCCCCN(CCCCCCCCCCCC)C(=O)c1cc(S(C)(=O)=O)ccc1S(=O)(=O)C(Br)(Br)Br [Comparative Compound (5)]
								3.0	0.18	3.0	0.17	3.9	0.09	4.0	0.08	CCOCCNC(=O)c1cccc(S(=O)(=O)C(Br)(Br)Br)c1 [P'-1]
								3.0	0.18	3.0	0.17	3.9	0.09	4.0	0.07	CCCCOCCCNC(=O)c1cccc(S(=O)(=O)C(Br)(Br)Br)c1 [P'-15]
								3.0	0.17	3.0	0.17	3.9	0.09	4.0	0.08	CCC(CC)NC(=O)c1cccc(S(=O)(=O)C(Br)(Br)Br)c1 [P'-18]
								3.0	0.17	3.0	0.17	3.9	0.09	4.0	0.07	CCCC(C)NC(=O)c1cccc(S(=O)(=O)C(Br)(Br)Br)c1 (centres unmarked) [P'-20]
2.9	0.17	3.0	0.17	3.9	0.09	4.0	0.08									COCCCNC(=O)c1cccc(S(=O)(=O)C(Br)(Br)Br)c1 [P-11]
3.0	0.20	3.0	0.20													CCCCNS(=O)(=O)c1cccc(S(=O)(=O)C(Br)(Br)Br)c1 [P-18]

Second part, the molecule before the results:

Structure (SMILES)	Image storage stability-1 (stored in dark, 60°C, 50%) Dmax ([1]; Table 1, 1.6×10^-1 mol/mol-Ag)	Image storage stability-1 (stored in dark, 60°C, 50%) Dmin ([1]; Table 1, 1.6×10^-1 mol/mol-Ag)	Image storage stability-2 (stored in light, 40°C, 50%) Dmax ([2]; Table 1, 1.6×10^-1 mol/mol-Ag)	Image storage stability-2 (stored in light, 40°C, 50%) Dmin ([2]; Table 1, 1.6×10^-1 mol/mol-Ag)	Image storage stability-1 (stored in dark, 60°C, 50%) Dmax ([3]; Table 3, 8×10^-2 mol/mol-Ag)	Image storage stability-1 (stored in dark, 60°C, 50%) Dmin ([3]; Table 3, 8×10^-2 mol/mol-Ag)	Image storage stability-2 (stored in light, 40°C, 50%) Dmax ([4]; Table 3, 8×10^-2 mol/mol-Ag)	Image storage stability-2 (stored in light, 40°C, 50%) Dmin ([4]; Table 3, 8×10^-2 mol/mol-Ag)	Image storage stability-1 (stored in dark, 60°C, 50%) Dmax ([1]; Table 2, 1.6×10^-1 mol/mol-Ag)	Image storage stability-1 (stored in dark, 60°C, 50%) Dmin ([1]; Table 2, 1.6×10^-1 mol/mol-Ag)	Image storage stability-2 (stored in light, 40°C, 50%) Dmax ([2]; Table 2, 1.6×10^-1 mol/mol-Ag)	Image storage stability-2 (stored in light, 40°C, 50%) Dmin ([2]; Table 2, 1.6×10^-1 mol/mol-Ag)	Image storage stability-1 (stored in dark, 60°C, 50%) Dmax ([3]; Table 4, 8×10^-2 mol/mol-Ag)	Image storage stability-1 (stored in dark, 60°C, 50%) Dmin ([3]; Table 4, 8×10^-2 mol/mol-Ag)	Image storage stability-2 (stored in light, 40°C, 50%) Dmax ([4]; Table 4, 8×10^-2 mol/mol-Ag)	Image storage stability-2 (stored in light, 40°C, 50%) Dmin ([4]; Table 4, 8×10^-2 mol/mol-Ag)
CCCCCCOCCN(CC)C(=O)c1cccc(S(=O)(=O)C(Br)(Br)Br)c1 [Comparative Compound 1]	2.1	0.17	2.5	0.17	2.7	0.08	3.2	0.08								
CCNC(=O)c1ccccc1S(=O)(=O)C(Br)(Br)Br [Comparative Compound 3]	2.9	0.41	3.0	0.25	4.1	0.35	4.1	0.15								
CCCCCCCCCCCCCCCCNC(=O)c1cccc(S(=O)(=O)C(Br)(Br)Br)c1 [Comparative Compound (1)]									2.8	0.54	2.8	0.43	3.6	0.35	3.4	0.22
O=C(c1cccc(S(=O)(=O)C(Br)(Br)Br)c1)N1CCCC1 [Comparative Compound (3)]									2.9	0.42	3.0	0.40	3.6	0.44	3.6	0.23
CCCCCCCCN(CCCCCCCC)S(=O)(=O)c1ccc(S(=O)(=O)C(Br)(Br)Br)cc1 [Comparative Compound (4)]									2.8	0.59	2.9	0.47	3.7	0.39	3.6	0.25
